# Counter-ions that a name gives are not always drawn. Like-named read-outs stand apart in the source and are kept apart here.
# How the values were obtained:
# [1] = tested on: plant material transgenic for the mannose 6-phosphate isomerase gene; experiment: Selection on mannose together with phloridzin; assay type: cell-based; settings: 0.5 g/l phloridzin
# Text: The transformed plant material is transgenic for the mannose 6-phosphate isomerase gene. After 21 days the selected shoots are harvested. […] Example 29 is repeated except that MOG is substituted by phloridzin. […] This is an example of how cross feeding and the production of escapers can be minimized by the addition of a carbohydrate transport inhibitor.
# [2] = tested on: explants transgenic for the mannose 6-phosphate isomerase gene; experiment: Shoot regeneration on mannose, sucrose and methyl-3-O-glucose, Man-6-P-isomerase; assay type: cell-based; settings: Man-6-P-isomerase
# Wild type explants = experiment: Shoot regeneration on mannose, sucrose and methyl-3-O-glucose, wild type; assay type: cell-based; settings: Wild type
# explants = experiment: Inhibition of the toxicity of mannose by methyl-3-O-glucose; assay type: cell-based
# Text: Example 25 is repeated except that the selection/regeneration substrate is supplemented with methyl 3-0-glucose (MOG) at the concentrations indicated in Table 25. The percentage of live explants is registered after 8 weeks.
# [3] = tested on: plant material transgenic for the mannose 6-phosphate isomerase gene; experiment: Effect of methyl-3-O-glucose on selection of transgenic shoots on mannose; assay type: cell-based; settings: mannose 15 g/l, no sucrose
# Text: The transformed plant material is transgenic for the mannose 6-phosphate isomerase gene. After 21 days the selected shoots are harvested.
# [4] = tested on: leaf discs of tobacco without (GUS-) introduced β-glucuronidase genes; assay type: cell-based, Nicotiana tabacum 'Wisconsin 38'; settings: test compounds at several concentrations up to 250 μM in MSO
# [5] = tested on: leaf discs of tobacco with (GUS+) introduced β-glucuronidase genes; assay type: cell-based, Nicotiana tabacum 'Wisconsin 38'; settings: test compounds at several concentrations up to 250 μM in MSO
# [6] = molecular target: β-glucuronidase from E. coli (Escherichia coli, UniProt P05804); experiment: Hydrolysis by β-glucuronidase (GUS), HPLC/TLC; assay type: biochemical
# Method: […] […] This confirms the identity of the product as a conjugate of BA and β-D-glucuronic acid.
# […] The presence of hydrolysis products is then determined using HPLC and TLC.
# potato stem segments = experiment: Carbohydrate sources, potato stem segments, 9 weeks; assay type: cell-based; settings: 5 g/l, 9 weeks; for activity at 5000 µg/mL: Solanum tuberosum
# Text: Similar results are observed with potato stem segments after 9 weeks of culturing.
# [7] = mannose 5.0 g/l, first '+ Sucrose' column
# [8] = mannose 5.0 g/l, second '+ Sucrose' column
# [9] = mannose 7.5 g/l, first '+ Sucrose' column
# [10] = mannose 7.5 g/l, second '+ Sucrose' column
# [11] = mannose 10.0 g/l, first '+ Sucrose' column
# [12] = mannose 10.0 g/l, second '+ Sucrose' column
# [13] = mannose 12.5 g/l, first '+ Sucrose' column
# [14] = mannose 15.0 g/l, first '+ Sucrose' column
# [15] = MOG 2.5, mannose 0 g/l, sucrose 10 g/l
# [16] = MOG 2.5, mannose 5 g/l, sucrose 0 g/l
# [17] = MOG 2.5, mannose 5 g/l, sucrose 10 g/l
# [18] = MOG 2.5, mannose 10 g/l, sucrose 0 g/l
# [19] = MOG 2.5, mannose 10 g/l, sucrose 10 g/l
# [20] = MOG 2.5, mannose 20 g/l, sucrose 0 g/l
# [21] = MOG 2.5, mannose 20 g/l, sucrose 10 g/l
# [22] = MOG 5.0, mannose 0 g/l, sucrose 0 g/l
# [23] = MOG 5.0, mannose 0 g/l, sucrose 10 g/l
# [24] = MOG 5.0, mannose 5 g/l, sucrose 0 g/l
# [25] = MOG 5.0, mannose 5 g/l, sucrose 10 g/l
# [26] = MOG 5.0, mannose 10 g/l, sucrose 0 g/l
# [27] = MOG 5.0, mannose 10 g/l, sucrose 10 g/l
# [28] = MOG 5.0, mannose 20 g/l, sucrose 0 g/l
# [29] = MOG 5.0, mannose 20 g/l, sucrose 10 g/l
# Sequence of β-glucuronidase from E. coli (P05804 whole entry, looked up): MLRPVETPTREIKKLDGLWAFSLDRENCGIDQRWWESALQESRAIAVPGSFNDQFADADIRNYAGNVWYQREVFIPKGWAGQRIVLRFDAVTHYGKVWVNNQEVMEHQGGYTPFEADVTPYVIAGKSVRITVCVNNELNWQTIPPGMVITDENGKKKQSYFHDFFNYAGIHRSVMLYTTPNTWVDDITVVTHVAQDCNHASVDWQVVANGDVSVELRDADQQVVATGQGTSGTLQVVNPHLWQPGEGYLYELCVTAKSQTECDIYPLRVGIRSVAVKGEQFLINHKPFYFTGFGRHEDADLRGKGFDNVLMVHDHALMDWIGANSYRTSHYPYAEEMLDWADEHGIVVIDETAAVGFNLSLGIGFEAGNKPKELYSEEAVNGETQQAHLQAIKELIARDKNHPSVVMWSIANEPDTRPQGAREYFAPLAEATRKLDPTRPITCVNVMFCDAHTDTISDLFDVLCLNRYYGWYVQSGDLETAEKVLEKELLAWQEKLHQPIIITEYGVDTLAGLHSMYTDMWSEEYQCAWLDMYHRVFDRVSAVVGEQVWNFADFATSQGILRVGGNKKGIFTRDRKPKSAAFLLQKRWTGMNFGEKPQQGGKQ
compound,measurement,setting,value
"O=C(CCc1ccc(O)cc1)c1c(O)cc(O)cc1O[C@@H]1O[C@H](CO)[C@@H](O)[C@H](O)[C@H]1O [Phloridzin, phloridzin]",GUS+ Shoots/Expl.,[1]; [7],1.2
same,GUS+ Shoots/Sel. Shoots,[1]; [7],94.0%
same,GUS+ Shoots/Expl.,[1]; [8],0.08
same,GUS+ Shoots/Sel. Shoots,[1]; [8],100.0%
same,GUS+ Shoots/Expl.,[1]; [9],0.5
same,GUS+ Shoots/Sel. Shoots,[1]; [9],88.0%
same,GUS+ Shoots/Expl.,[1]; [10],0.5
same,GUS+ Shoots/Sel. Shoots,[1]; [10],78.5%
same,GUS+ Shoots/Expl.,[1]; [11],0.5
same,GUS+ Shoots/Sel. Shoots,[1]; [11],100.0%
same,GUS+ Shoots/Expl.,[1]; [12],0.5
same,GUS+ Shoots/Sel. Shoots,[1]; [12],95%
same,GUS+ Shoots/Expl.,[1]; [13],0.03
same,GUS+ Shoots/Sel. Shoots,[1]; [13],100%
same,GUS+ Shoots/Expl.,"[1]; mannose 12.5 g/l, second '+ Sucrose' column",0.0
same,GUS+ Shoots/Expl.,[1]; [14],0.03
same,GUS+ Shoots/Sel. Shoots,[1]; [14],100%
same,GUS+ Shoots/Expl.,"[1]; mannose 15.0 g/l, second '+ Sucrose' column",0.0
"CO[C@H]1[C@H](O)[C@@H](CO)OC(O)[C@@H]1O (some centres unmarked) [MOG, methyl 3-0-glucose]",regenerated shoots as a percentage of shoots on substrates without mannose and methyl-3-0-glucose,"[2]; MOG 2.5, mannose 0 g/l, sucrose 0 g/l",0
same,regenerated shoots as a percentage of shoots on substrates without mannose and methyl-3-0-glucose,[2]; [15],0
same,regenerated shoots as a percentage of shoots on substrates without mannose and methyl-3-0-glucose,[2]; [16],7
same,regenerated shoots as a percentage of shoots on substrates without mannose and methyl-3-0-glucose,[2]; [17],64
same,regenerated shoots as a percentage of shoots on substrates without mannose and methyl-3-0-glucose,[2]; [18],64
same,regenerated shoots as a percentage of shoots on substrates without mannose and methyl-3-0-glucose,[2]; [19],86
same,regenerated shoots as a percentage of shoots on substrates without mannose and methyl-3-0-glucose,[2]; [20],107
same,regenerated shoots as a percentage of shoots on substrates without mannose and methyl-3-0-glucose,[2]; [21],200
same,regenerated shoots as a percentage of shoots on substrates without mannose and methyl-3-0-glucose,[2]; [22],0
same,regenerated shoots as a percentage of shoots on substrates without mannose and methyl-3-0-glucose,[2]; [23],0
same,regenerated shoots as a percentage of shoots on substrates without mannose and methyl-3-0-glucose,[2]; [24],0
same,regenerated shoots as a percentage of shoots on substrates without mannose and methyl-3-0-glucose,[2]; [25],64
same,regenerated shoots as a percentage of shoots on substrates without mannose and methyl-3-0-glucose,[2]; [26],28
same,regenerated shoots as a percentage of shoots on substrates without mannose and methyl-3-0-glucose,[2]; [27],36
same,regenerated shoots as a percentage of shoots on substrates without mannose and methyl-3-0-glucose,[2]; [28],128
same,regenerated shoots as a percentage of shoots on substrates without mannose and methyl-3-0-glucose,[2]; [29],86
same,regenerated shoots as a percentage of shoots on substrates without mannose and methyl-3-0-glucose,"Wild type explants; MOG 2.5, mannose 0 g/l, sucrose 0 g/l, 11 weeks",0
same,regenerated shoots as a percentage of shoots on substrates without mannose and methyl-3-0-glucose,Wild type explants; [15],53
same,regenerated shoots as a percentage of shoots on substrates without mannose and methyl-3-0-glucose,Wild type explants; [16],0
same,regenerated shoots as a percentage of shoots on substrates without mannose and methyl-3-0-glucose,Wild type explants; [17],6
same,regenerated shoots as a percentage of shoots on substrates without mannose and methyl-3-0-glucose,Wild type explants; [18],0
same,regenerated shoots as a percentage of shoots on substrates without mannose and methyl-3-0-glucose,Wild type explants; [19],0
same,regenerated shoots as a percentage of shoots on substrates without mannose and methyl-3-0-glucose,Wild type explants; [20],0
same,regenerated shoots as a percentage of shoots on substrates without mannose and methyl-3-0-glucose,Wild type explants; [21],0
same,regenerated shoots as a percentage of shoots on substrates without mannose and methyl-3-0-glucose,Wild type explants; [22],0
same,regenerated shoots as a percentage of shoots on substrates without mannose and methyl-3-0-glucose,Wild type explants; [23],17
same,regenerated shoots as a percentage of shoots on substrates without mannose and methyl-3-0-glucose,Wild type explants; [24],0
same,regenerated shoots as a percentage of shoots on substrates without mannose and methyl-3-0-glucose,Wild type explants; [25],41
same,regenerated shoots as a percentage of shoots on substrates without mannose and methyl-3-0-glucose,Wild type explants; [26],0
same,regenerated shoots as a percentage of shoots on substrates without mannose and methyl-3-0-glucose,Wild type explants; [27],0
same,regenerated shoots as a percentage of shoots on substrates without mannose and methyl-3-0-glucose,Wild type explants; [28],0
same,regenerated shoots as a percentage of shoots on substrates without mannose and methyl-3-0-glucose,Wild type explants; [29],0
same,percentage of live explants,"explants; MOG 5 g/l, mannose 0 g/l, sucrose 0 g/l",13
same,percentage of live explants,"explants; MOG 5 g/l, mannose 0 g/l, sucrose 10 g/l",100
same,percentage of live explants,"explants; MOG 5 g/l, mannose 5 g/l, sucrose 0 g/l",54
same,percentage of live explants,"explants; MOG 5 g/l, mannose 5 g/l, sucrose 10 g/l",100
same,percentage of live explants,"explants; MOG 5 g/l, mannose 10 g/l, sucrose 0 g/l",0
same,percentage of live explants,"explants; MOG 5 g/l, mannose 10 g/l, sucrose 10 g/l",5
same,percentage of live explants,"explants; MOG 10 g/l, mannose 0 g/l, sucrose 0 g/l",47
same,percentage of live explants,"explants; MOG 10 g/l, mannose 0 g/l, sucrose 10 g/l",100
same,percentage of live explants,"explants; MOG 10 g/l, mannose 5 g/l, sucrose 0 g/l",82
same,percentage of live explants,"explants; MOG 10 g/l, mannose 5 g/l, sucrose 10 g/l",100
same,percentage of live explants,"explants; MOG 10 g/l, mannose 10 g/l, sucrose 0 g/l",9
same,percentage of live explants,"explants; MOG 10 g/l, mannose 10 g/l, sucrose 10 g/l",41
same,percentage of live explants,"explants; MOG 20 g/l, mannose 0 g/l, sucrose 0 g/l",50
same,percentage of live explants,"explants; MOG 20 g/l, mannose 0 g/l, sucrose 10 g/l",100
same,percentage of live explants,"explants; MOG 20 g/l, mannose 5 g/l, sucrose 0 g/l",98
same,percentage of live explants,"explants; MOG 20 g/l, mannose 5 g/l, sucrose 10 g/l",100
same,percentage of live explants,"explants; MOG 20 g/l, mannose 10 g/l, sucrose 0 g/l",88
same,percentage of live explants,"explants; MOG 20 g/l, mannose 10 g/l, sucrose 10 g/l",100
same,GUS+ shoots/explant,[3]; MOG 2.5 g/l,0.2
same,GUS+ shoots/sel. shoots (%),[3]; MOG 2.5 g/l,57%
same,GUS+ shoots/explant,[3]; MOG 5.0 g/l,1.0
same,GUS+ shoots/sel. shoots (%),[3]; MOG 5.0 g/l,81%
same,GUS+ shoots/explant,[3]; MOG 10 g/l,0.5
same,GUS+ shoots/sel. shoots (%),[3]; MOG 10 g/l,89%
same,GUS+ shoots/explant,[3]; MOG 15 g/l,0.6
same,GUS+ shoots/sel. shoots (%),[3]; MOG 15 g/l,53%
"CC(C)=CCNc1ncn([C@@H]2O[C@H](C(=O)[O-])[C@@H](O)[C@H](O)[C@H]2O)c2ncnc1-2.[Na+] [IP3GN sodium salt, 3-β-D-glucopyranuronosyl-6-(3-methyl-but-2-enylamino)purine, sodium salt]","Shoot formation, GUS-",[4],"+ (""+"" means shoot formation at concentrations below 250 μM)"
same,"Shoot formation, GUS+",[5],"+ (""+"" means shoot formation at concentrations below 250 μM)"
same,"Hydrolysis by β-glucuronidase (GUS), result in words","[6]; 50 mM sodium phosphate buffer pH 7.0, 37° C., HPLC/TLC",removal of the UV spot corresponding to IP3GN
O=C(O)[C@H]1OC(O)[C@H](O)[C@@H](O)[C@@H]1O (some centres unmarked) [Glucuronic acid],"Shoot formation, GUS-",[4],"- (""-"" means no shoot formation at concentrations below 250 μM)"
same,"Shoot formation, GUS+",[5],"- (""-"" means no shoot formation at concentrations below 250 μM)"
"CC(C)=CCNc1ncnc2[nH]c(S[C@@H]3O[C@H](C(=O)O)[C@@H](O)[C@H](O)[C@H]3O)nc12 [IP8SGN sodium salt, 6-(3-methyl-but-2-enylamino)purine-8-yl-1-thio-β-D-glucopyranuronic acid, sodium salt]","Shoot formation, GUS-",[4],"+ (""+"" means shoot formation at concentrations below 250 μM)"
same,"Shoot formation, GUS+",[5],"+ (""+"" means shoot formation at concentrations below 250 μM)"
same,conversion to the aglycone by GUS,"[6]; 1 mg/ml, 2500 units GUS, 24 hours, 37° C., TLC",> 95%
O=C(CO)[C@@H](O)[C@H](O)CO [D-xylulose],# of Shoots per explant,potato stem segments,2.2
same,activity at 5000 µg/mL,potato stem segments; read-out: Size % of control,74%
same,activity at 5000 µg/mL,potato stem segments; read-out: explants alive % of control,58%
C/C(=C\CNc1ncnc2[nH]cnc12)CO [Zeatin],"Shoot formation, GUS-",[4],"+ (""+"" means shoot formation at concentrations below 250 μM)"
same,"Shoot formation, GUS+",[5],"+ (""+"" means shoot formation at concentrations below 250 μM)"
